Patent US5585259A, “Ecotin as a factor Xa, XIa, and XIIa inhibitor” (Corvas International, Inc., priority 1993, dated 1996)

How the values were obtained:
[1] = biological target: thrombin; assay: Protease assay, chromogenic substrate; format: biochemical; conditions: 30 minutes preincubation, read-out: Inhibition constant
Method: (§1) Protease activity was determined using commercially available chromogenic substrates and purified proteases. The initial rate was determined with a Thermomax (Molecular Devices) microtiterplate reader at 405 nm wavelength at room temperature. The buffer used for all measurements contained 100 mM TRIS, 140 mM NaCl, 0.1% BSA, pH 7.4. […]
To determine inhibition constants, the protease was incubated during 90 minutes (factor Xa), 45 minutes (trypsin), or 30 minutes (thrombin, plasmin, factor VIIa-tissue factor, human plasma kallikrein, porcine pancreatic elastase, factor XIa, factor XIIa, activated protein C, recombinant t-PA and urokinase) in 150 μl before the substrate (50 μl) was added. The inhibition constant was determined from a plot of the relative activity versus the inhibitor concentration fitted with the following equation: […]
except for thrombin where the total enzyme concentration can be neglected compared to the inhibitor concentration and the equation is reduced to:
vi /vo =1/(1+[It ]/Ki *).
vi and vo are the initial rates measured in presence and in absence of inhibitor, [It ] and [Et ] are the total inhibitor and enzyme concentrations and Ki * is the apparent inhibition constant. […]

[2] = biological target: chymotrypsin; assay: Protease assay; format: biochemical; conditions: read-out: Inhibition constant
Method: Protease activity was determined using commercially available chromogenic substrates and purified proteases. The initial rate was determined with a Thermomax (Molecular Devices) microtiterplate reader at 405 nm wavelength at room temperature. The buffer used for all measurements contained 100 mM TRIS, 140 mM NaCl, 0.1% BSA, pH 7.4.
(§2) vi /vo ={([Et ]-[It ]-Ki *)+[([It ]+i
(§3) *-[Et ])^2 +4Ki *[Et ]]^ 1/2 }/2[Et ]
(§4) vi and vo are the initial rates measured in presence and in absence of inhibitor, [It ] and [Et ] are the total inhibitor and enzyme concentrations and Ki * is the apparent inhibition constant. It was assumed that under these conditions the apparent inhibition constant is not dependent on the substrate concentration and corresponds to the binding constant of the inhibitor to the active site of the protease in the conditions of the experiment.

[3] = biological target: activated protein C; assay: Protease assay, chromogenic substrate; format: biochemical; conditions: 30 minutes preincubation, read-out: Inhibition constant
Method: as §1
(§5) To determine inhibition constants, the protease was incubated during 90 minutes (factor Xa), 45 minutes (trypsin), or 30 minutes (thrombin, plasmin, factor VIIa-tissue factor, human plasma kallikrein, porcine pancreatic elastase, factor XIa, factor XIIa, activated protein C, recombinant t-PA and urokinase) in 150 μl before the substrate (50 μl) was added. The inhibition constant was determined from a plot of the relative activity versus the inhibitor concentration fitted with the following equation:
as §2, §3, §4

[4] = system: factor VIIa-tissue factor complex; assay: Protease assay, chromogenic substrate; format: biochemical; conditions: concentrations up to 1 μM
Method: as §1, §5, §2, §3, §4

[5] = biological target: factor XIIA; assay: Protease assay, chromogenic substrate; format: biochemical; conditions: 30 minutes preincubation, read-out: Inhibition constant
Method: as §1, §5, §2, §3, §4

[6] = biological target: factor XIa; assay: Protease assay, chromogenic substrate; format: biochemical; conditions: 30 minutes preincubation, read-out: Inhibition constant
Method: as §1, §5, §2, §3, §4

[7] = biological target: factor Xa; assay: Protease assay, chromogenic substrate; format: biochemical; conditions: 90 minutes preincubation, read-out: Inhibition constant
Method: as §1, §5, §2, §3, §4

[8] = biological target: human plasma kallikrein; assay: Protease assay, chromogenic substrate; format: biochemical; conditions: 30 minutes preincubation, read-out: Inhibition constant
Method: as §1, §5, §2, §3, §4

[9] = system: plasmin; assay: Protease assay, chromogenic substrate; format: biochemical
Method: as §1, §5, §2, §3, §4

[10] = biological target: rt-PA; assay: Protease assay, chromogenic substrate; format: biochemical; conditions: 30 minutes preincubation, read-out: Inhibition constant
Method: as §1, §5, §2, §3, §4

[11] = biological target: urokinase; assay: Protease assay, chromogenic substrate; format: biochemical; conditions: 30 minutes preincubation, read-out: Inhibition constant
Method: as §1, §5, §2, §3, §4

[12] = system: occlusive thrombus formation in rat carotid artery; assay: Rat model of FeCl3-induced platelet-dependent arterial thrombosis; format: in vivo; conditions: 10 μg/kg/min continuous intravenous infusion
Source text: The rat model is a well characterized model of platelet dependent, arterial thrombosis which has been used in the evaluation potential antithrombotic compounds such as direct thrombin inhibitors. Kurz et al., 60 Thromb. Res. 269, 1990. […] In this model a platelet-rich, occlusive thrombus is formed in a segment of the rat carotid artery treated with a fresh solution of FeCl3 absorbed to a piece of filter paper. The FeCl3 is thought to diffuse into the treated segment of artery and causes de-endothelialization resulting in thrombus formation. The effect of a test compound on the incidence of occlusive thrombus formation following the application of the FeCl3 is monitored by ultrasonic flowtometry, and is used as the primary end point. The use of flowtometry is a modification of the original procedure in which thermal detection of clot formation was employed. Kurz et al., supra.
Male Harlan Sprague Dawley rats (420-450 g) were acclimated at least 72 hours prior to use and fasted for 12 hours prior to surgery with free access to water. The animals were prepared, anesthetized with Nembutal with catheters for blood pressure monitoring, drug and anesthesia delivery being implanted as described above. The left carotid artery was isolated by making a midline cervical incision followed by blunt dissection and spreading techniques to separate a 2 cm segment of the vessel from the carotid sheath. A silk suture was inserted under the proximal and distal ends of the isolated vessel to provide clearance for the placement of an ultrasonic flow probe (Transonic) around the proximal end of the vessel. […]
Following surgery, the animals were randomized in either a control (saline infusion) or treatment group with test compound (Ecotin) with at least 4 animals per group at the indicated dose. […] Blood pressure, blood flow, heart rate, and respiration were monitored for 60 minutes.
The incidence of occlusion (defined as the attainment of zero blood flow) was recorded as the primary end point. […] The segment was re-weighed following removal of the clot and the difference recorded as total % clot weight. […]

[13] = system: pancreatic elastase; conditions: cited from earlier work
[14] = system: rat mast cell chymase; conditions: cited from earlier work
[15] = system: human serosal urokinase; conditions: cited from earlier work
[16] = system: human pulmonary tryptase; conditions: cited from earlier work
[17] = system: kallikrein; conditions: cited from earlier work
[18] = system: papain; conditions: cited from earlier work
[19] = system: pepsin; conditions: cited from earlier work
[20] = system: Staphylococcus aureus V8 protease; conditions: cited from earlier work
[21] = system: subtilisin; conditions: cited from earlier work
[22] = system: thermolysin; conditions: cited from earlier work
[23] = system: eight soluble endoproteases which are isolated from E. coli (Do, Re, Mi, Fa, So, La, Ci, Pi); conditions: cited from earlier work
[24] = system: chymotrypsin-like (protease I) esterase; conditions: cited from earlier work
[25] = system: trypsin-like (protease II) esterase; conditions: cited from earlier work
[26] = system: three membrane-associated serine proteases; conditions: cited from earlier work
[27] = system: trypsin; conditions: cited from earlier work
[28] = system: elastase; conditions: cited from earlier work

With “Ecotin: endogenous E. coli periplasmic serine protease (trypsin) inhibitor protein; recombinant form from pMa5-CI, molecular mass 16,098 Daltons” the Ki [1] was 7200 nM, the Ki [2] was < 2.5 nM and the Ki [3] was > 2500 nM. For the same substance, the “inhibition of factor VIIa-tissue factor complex” value [4] was “not inhibited”, the Ki [5] was < 2.5 nM and the Ki [6] was 2.5 to 25 nM. It also gave a Ki [7] of 0.05 to 0.2 nM, a Ki [8] of 1.4 nM and a Plasmin inhibition ([9]; 1 μM recombinant Ecotin) of 15%. The Inhibition constant ([9]; plasmin, 30 minutes preincubation) was “inactive”, the Ki [10] was > 2500 nM and the Ki [11] was > 2500 nM. For the same substance, the “Time to Occlusion” value [12] was 20.1 ± 0.9 min, the “Incidence of Occlusion” value ([12]; 60 minute observation) was 2/6 and the “Clot Formation (%)” value ([12]; p<0.01 vs Control) was 12.73 ± 8.04%. The “inhibition of pancreatic elastase” value [13] was “potent inhibitor”, the “inhibition of rat mast cell chymase” value [14] was “potent inhibitor” and the “inhibition of human serosal urokinase” value [15] was “potent inhibitor”. For the same substance, the “inhibition of human pulmonary tryptase” value [16] was “does not inhibit”, the inhibition of kallikrein [17] was “does not inhibit” and the inhibition of papain [18] was “does not inhibit”. The inhibition of pepsin [19] was “does not inhibit”, the “inhibition of Staphylococcus aureus V8 protease” value [20] was “does not inhibit” and the inhibition of subtilisin [21] was “does not inhibit”. The inhibition of thermolysin [22] was “does not inhibit”, the “inhibition of the eight soluble E. coli endoproteases” value [23] was “does not inhibit” and the “inhibition of chymotrypsin-like (protease I) esterase in E. coli” value [24] was “does not inhibit”. The “inhibition of trypsin-like (protease II) esterase in E. coli” value [25] was “does not inhibit”, the “inhibition of three membrane-associated serine proteases” value [26] was “insensitive to inhibition” and the inhibition of trypsin [27] was “able to inhibit”. The inhibition of elastase [28] was “able to inhibit”.
